{"source": "patent US9109048B2", "about": "“Inhibition of tumor growth” (priority 1998, dated 2015)", "key": {"C26 colon carcinoma": {"test_system": "C26 colon carcinoma", "test": "Murine C26 colon carcinoma model", "format": "in vivo, Balb/c mice", "method": "The antitumoral activity of the peptide, Ad-LFB 14-31 A2,3,6,10,17,F7,R4,K11,L14-NH2, (NDDO1) was tested in a murine C26 colon carcinoma model established in syngenic Balb/c mice. C26 cells (5×10^6 cells in 50 μl) cells were inoculated subcutaneously on the abdomen of the mice (3 animals) and grown into proper size (20-30 mm^2) before treatment start. At day 7 the tumors were treated intra-tumorally with 0.5 mg/50 μl peptide once a day for three consecutive days and the progression was followed. […] In this mouse C26 tumor cells (5×10^6 cells in 50 μl) were re-inoculated subcutaneously three weeks after peptide treatment."}, "[1]": {"test_system": "A20 B-cell lymphoma tumor", "test": "Re-inoculation of A20 cells after successful peptide treatment", "format": "in vivo, Balb/c mice", "settings": "no further administration of peptides", "description": "b) Mice in which a A20 B-cell lymphoblast tumor had successfully been eradicated as described above were re-inoculated with 5×10^6 cells of A20 B-cell lymphoma tumor. Untreated mice served as a negative control. No further administration of peptides or any other anti-tumor agents took place."}, "[2]": {"test_system": "Meth A cells (murine sarcoma cell line)", "test": "Cytotoxicity on Meth A cells, MTT method", "method": "Peptide solutions (0.1 ml) were added and the plates incubated at 37° C. for 30 minutes, 4 hours or 24 hours. The cytotoxicity was measured using the MTT method (Mosmann et al., J. Immunol. (1986) 136, 2348-2357).\nCells in the growth phase were harvested and washed in fresh medium and injected subcutaneously into the abdominal region of the mice.\nThe cytotoxic effect of the peptides on different murine and human tumor cells were measured using the MTT method (Mosmann et al., J. Immunol. (1986) 136, 2348-2357).\nMTT is a soluble tetrazolium salt yielding a yellow solution when prepared in media or salt solutions lacking phenol red. Dissolved MTT is converted to an insoluble purple formazan by cleavage of the tetrazolium ring by dehydrogenase enzymes. This water insoluble formazan can be solubilized using isopropanol or other solvents and the dissolved material is measured spectrophotometrically. The absorbance was measured as a function of concentration of converted dye.\nCells were maintained in […] medium containing 10% FBS, 1% L-glutamine and 0.1% penicillin and streptomycin. Cells to be used in the assay were grown to confluency, trypsinated and split to single cell suspension, counted and centrifuged at 1500 rpm for 10 min. […][…] of cell suspension was transferred to each well on a 96-well microtiter plate. The cells were stimulated by adding […] of various concentrations of peptides diluted with assay medium to each well. The final concentrations of peptide were for example: 5, 10, 20, 40, 60, 80, 100, and 200 mg/ml. […] As a negative control only medium was added to the cells, and as a positive control (100% killing) 1% triton X-100 was added. Following an incubation period of 4 h., 20 ml MTT dissolved in PBS at a concentration of 5 mg/ml was added to each well, and the plate was incubated further for 2 h. 130 ml of the supernatant were then removed and […] acid alcohol (0.04-0.1 N HCl in isopropanol) added to each well to dissolve the dark blue crystals. The plate was placed on a shaker for 1 h and read spectrophotometrically at 590 nm in a microtiterplate reader using the Softmaxâ program."}, "Meth A tumor cells": {"test_system": "Meth A tumor cells", "test": "Reinoculation of Meth A cells after successful treatment", "format": "in vivo, mice", "settings": "reinoculation 1 month after successful treatment, no further treatment"}, "[3]": {"test_system": "A20 B-cell lymphoblastoma", "test": "Adoptive transfer of spleen cells from cured mice", "format": "in vivo, Balb/c mice", "settings": "donors cured with the peptide; versus naive donors", "method": "Syngenic Balb/c mice were selected as a model system to investigate the long-term anti-tumor immunity conferred by an initial treatment with a lytic peptide (H2N-WKKWdipKKWK-COOH—Mod 39 (SEQ ID NO: 42)) against A20 B-cell lymphoblastoma. Tumour cells (5×10^6) were inoculated subcutaneously on the abdomen of the mice and grown into proper size (20-30 mm^2) before treatment start. The mice were treated intra-tumorally with 0.5 mg/50 μl peptide once a day for three consecutive days and the progression was followed. Mice that were successfully treated were selected as donors (treated donor) for adoptive transfer of spleen cells, 3 weeks after tumor eradication.\nDay 1—Naive acceptor mice were subjected to a Total Body Irradiation (TBI) of 500 cGy in preparation for receiving adoptive transfer of immune cells from spleen donors.\nDay 2—Single-cell suspensions of spleenocytes depleted of red blood cells from treated donor mice and naïve mice were prepared as previously described (Ward, B. A. et al., J. Immunology Aughust 1988, vol 141 p 1047), except that sterile H2O was used instead of ammonium chloride to eliminate red blood cells.\nDonor spleen cells (approximately 40 million) were injected i.v. into the tail vein of acceptor mice according to the methods described in Bogen B. et al., Eur J Immunology, May 1983, vol 13(5), pages 353-359. […]"}, "[4]": {"format": "physicochemical", "description": "Peptide W3714, with three additional tryptophan residues (a total of five tryptophan residues in the peptide), has decreased activity. […] This has been physically observed during MIC testing procedures when the peptide tended to precipitate at high concentrations."}}, "note": "Square brackets hold non-standard residues; d marks the D form. Bip = N[C@@H](Cc1ccc(-c2ccccc2)cc1)C(=O)O"}
{"substance": "Ad-LFB 14-31 A2,3,6,10,17,F7,R4,K11,L14-NH2 [NDDO1]", "values": [{"measurement": "primary effect on C26 colon carcinoma", "setting": "C26 colon carcinoma; 3 animals, 0.5 mg/50 μl intra-tumorally once a day for three days", "result": "In one mouse full tumor regression was obtained"}, {"measurement": "effect of re-inoculating C26 cells", "setting": "C26 colon carcinoma; re-inoculated three weeks after peptide treatment, no further treatment", "result": "A regression of the tumor after an initial growth was obtained without any further treatment"}]}
{"substance": "H2N-FKCRRWQWRMKKLGAPSITCVRRAF-COOH (H-FKCRRWQWRMKKLGAPSITCVRRAF-OH; ends and bridges not checked) [Cyclic LFB, enzymatically cleaved fragment of bovine lactoferrin, from Morinaga, reference compound]", "values": [{"measurement": "tumor growth after re-inoculation of A20 cells", "setting": "[1]", "result": "no further growth occurred"}, {"measurement": "concentration at which Meth A cells were effectively killed", "setting": "[2]; Meth A cells 1×10^4/ml, 4 h incubation (FIG. 2)", "result": "higher than 0.8 mg/ml"}, {"measurement": "Meth A cells killed", "setting": "[2]; at concentrations higher than 0.8 mg/ml", "result": "more than 99%"}, {"measurement": "tumor establishment after reinoculation of Meth A cells", "setting": "Meth A tumor cells", "result": "some storm of adaptive immunity is shown"}]}
{"substance": "H2N-KAAKKAbipKAAKAbipKKAA-COOH (H-KAAKKA[Bip]KAAKA[Bip]KKAA-OH; SMILES C[C@H](NC(=O)[C@H](C)NC(=O)[C@H](CCCCN)NC(=O)[C@H](CCCCN)NC(=O)[C@H](Cc1ccc(-c2ccccc2)cc1)NC(=O)[C@H](C)NC(=O)[C@H](CCCCN)NC(=O)[C@H](C)NC(=O)[C@H](C)NC(=O)[C@H](CCCCN)NC(=O)[C@H](Cc1ccc(-c2ccccc2)cc1)NC(=O)[C@H](C)NC(=O)[C@H](CCCCN)NC(=O)[C@H](CCCCN)NC(=O)[C@H](C)NC(=O)[C@H](C)NC(=O)[C@@H](N)CCCCN)C(=O)O) [Peptide C12]", "values": [{"measurement": "time until the re-inoculated A20 tumor completely disappeared", "setting": "[1]", "result": 6, "unit": "days"}]}
{"substance": "H2N-WKKWdipKKWK-COOH [L-Mod 39]", "values": [{"measurement": "time until the re-inoculated A20 tumor completely disappeared", "setting": "[1]", "result": 10, "unit": "days"}]}
{"substance": "H2N-WKKWdipKKWK-COOH [Model 39]", "values": [{"measurement": "rejection of implanted A20 tumors in acceptors of spleen cells from cured mice", "setting": "[3]", "result": "able to reject implanted tumors"}]}
{"substance": "H-FKWRRWWWRMKKLWA-OH [LFBW3,7,14, H2N-Phe-Lys-Trp-Arg-Arg-Trp-Trp-Trp-Arg-Met-Lys-Lys-Leu-Trp-Ala-COOH]", "values": [{"measurement": "solubility in aqueous solutions", "setting": "[4]", "result": "less soluble in aquous solutions"}]}
